Measured values published in US11186607B1, “Pleuromutilin ursodeoxycholic acid ester with antibacterial activity and a method of preparing the same” (Xi'an Taikomed Pharmaceutical Technology Co., Ltd., priority 2020, dated 2021).

How the values were obtained:
Assay type in all cases: cell-based, Staphylococcus aureus
MRSA-171 = assay: paper diffusion drug sensitivity test, MRSA-171; conditions: for Zone of inhibition: MRSA-171, drug sensitive paper 30 μg/tablet, LB plate, 37° C., 24 h; for inhibitory effect (in words): multi-drug resistant Staphylococcus aureus 171, summary of FIGS. 1-3 and Table 1
Experimental: [Worded in the source for another organism; this organism is reported under the same test.] (§1) The antimicrobial efficacy was determined by a paper diffusion drug sensitivity test.
(§2) Experimental strains: multi-resistant Staphylococcus aureus 206, multi-resistant Staphylococcus aureus 575, multi-resistant Staphylococcus aureus 596. The experimental strains were provided by Huashan Hospital Affiliated to Fudan University (Institute of Antibiotic of Fudan University).
(§3) Drug sensitive paper: The drug sensitive paper was a special drug sensitive paper with a diameter of 6.35 mm and a water absorption of 0.02 mL. The control drug was vancomycin (30 μg/tablet); the test drugs were pleuromulin (30 μg/tablet), ursodeoxycholic acid (30 μg/tablet) and pleuromulin ursodeoxycholic acid ester (30 μg/tablet).
(§4) The experimental strains were inoculated in non-selective medium and placed in air at 37° C. for 24 h. Pick a single colony that grows well and inoculate it into broth medium, incubate at 35° C.±2° C. for 6 hours, and use LA broth medium to calibrate the concentration of the bacterial solution to 0.5 Mie turbidimetric tube (1.5×10^8 CFU/mL). A bacterial suspension is obtained.
(§5) Weigh the LB dry powder, sterilize at 103.4 Kpa, 121.3° C. high-pressure steam for 15 min, and then put it in a 40° C.-50° C. water bath. Place a sterile empty plate (inner diameter 9 cm) on the surface of the ultra-clean table water table, shake and shake LB, and then pour the plate. The thickness of each plate is 3 mm to 4 mm. After the plate is cooled at room temperature, store it in the refrigerator at 2° C.-8° C. Use a sterile cotton swab to dip the bacterial solution, and evenly coat the surface of the LB plate 3 times. After inoculation of the bacterial suspension, the LB plate was dried at room temperature for 3 min to 5 min. Use sterile forceps to closely attach the antibacterial drug paper to the dish. Put the dish upside down and place it in a 37° C. incubator for 24 h. Observe the result and measure the diameter. Taking 0.5% DMSO solution as a negative control, the antibacterial activity is expressed by the diameter of the inhibition zone. The inhibition zone ≥17 mm, sensitive; the inhibition zone is 15 mm˜16 mm, intermediary; the inhibition zone ≤14 mm, drug resistance.

MRSA-575 = assay: paper diffusion drug sensitivity test, MRSA-575; conditions: for Zone of inhibition: MRSA-575, drug sensitive paper 30 μg/tablet, LB plate, 37° C., 24 h; for inhibitory effect (in words): multi-drug resistant Staphylococcus aureus 575, summary of FIGS. 1-3 and Table 1
Experimental: as §1, §2, §3, §4, §5

MRSA-596 = assay: paper diffusion drug sensitivity test, MRSA-596; conditions: for Zone of inhibition: MRSA-596, drug sensitive paper 30 μg/tablet, LB plate, 37° C., 24 h; for inhibitory effect (in words): multi-drug resistant Staphylococcus aureus 596, summary of FIGS. 1-3 and Table 1
Experimental: as §1, §2, §3, §4, §5

| SMILES | Zone of inhibition (MRSA-171) [mm] | inhibitory effect (in words) (MRSA-171) | Zone of inhibition (MRSA-575) [mm] | inhibitory effect (in words) (MRSA-575) | Zone of inhibition (MRSA-596) [mm] | inhibitory effect (in words) (MRSA-596) | Zone of inhibition (MRSA-575; listed as pleuromutilin ursodeoxycholic acid ester) |
| --- | --- | --- | --- | --- | --- | --- | --- |
| C=C[C@]1(C)C[C@@H](OC(=O)CO)[C@]2(C)[C@H](C)CC[C@]3(CCC(=O)[C@H]32)[C@@H](C)[C@@H]1O [Pleuromulin] | 0 | no inhibitory effect | 0 | no inhibitory effect | 0 | no inhibitory effect |  |
| CN[C@H](CC(C)C)C(=O)N[C@H]1C(=O)N[C@@H](CC(N)=O)C(=O)N[C@H]2C(=O)N[C@H]3C(=O)N[C@H](C(=O)N[C@H](C(=O)O)c4cc(O)cc(O)c4-c4cc3ccc4O)[C@H](O)c3ccc(c(Cl)c3)Oc3cc2cc(c3O[C@@H]2O[C@H](CO)[C@@H](O)[C@H](O)[C@H]2O[C@H]2C[C@](C)(N)[C@H](O)[C@H](C)O2)Oc2ccc(cc2Cl)[C@H]1O [Vancomycin] | 17 |  | 17 |  | 23 |  |  |
| C[C@H](CCC(=O)O)[C@H]1CC[C@H]2[C@@H]3[C@@H](O)C[C@@H]4C[C@H](O)CC[C@]4(C)[C@H]3CC[C@]12C [Ursodeoxycholic acid] | 0 | no inhibitory effect | 0 | no inhibitory effect | 0 | no inhibitory effect |  |
| C=C[C@]1(C)C[C@@H](OC(=O)COC(=O)CC[C@@H](C)[C@H]2CCC3[C@@H]4[C@@H](O)C[C@@H]5C[C@H](O)CC[C@]5(C)[C@H]4CC[C@@]32C)[C@]2(C)CC[C@@H](C)[C@@]3(CCC(=O)[C@@H]23)[C@@H](C)[C@@H]1O (stereo partly drawn) [Pleuromulin ursodeoxycholic acid ester, (4R)-2-(((3aS,4R,5S,6S,8R,9R,9aR,12R)-5-hydroxy-4,6,9,12-tetramethyl-1-oxo-6-vinyldecahydro-3a,9-propanocyclopenta[8]annulen-8-yl)oxy)-2-oxoethyl 4-((3R,5 S,7 S, 8R,9 S, 10 S,13R,17R)-3,7-dihydroxy-10,13-dimethylhexadecahydro-1H-cyclopenta[a]phenanthren-17-yl)pentanoate] | 11 | strong inhibitory effects | 13 | strong inhibitory effects | 12 | strong inhibitory effects | up to 13 mm |
